29 compounds from patent publication US10160762B2, “6-alkyl dihydropyrazolopyrimidinone compounds as PDE2 inhibitors” (Merck Sharp & Dohme Corp., priority 2015, dated 2018) can be followed below.

A word on the Ki: it is the equilibrium dissociation constant of an inhibitor or competing ligand from its target.

The target of the assay is T1, human PDE2A1 (Homo sapiens, UniProt O00408).
T1 construct: GST; purchased BPS Bioscience (San Diego, Calif.) 60020; host or cells: insect cells
Description: IMAP FP PDE assay, human PDE2A1. The format is biochemical. The settings on record: Lab B; read-out: Human PDE2 Ki (nM) Lab B. Summed up: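 GST-tagged human PDE2A1 from insect cells; substrate 50 nM FAM-cAMP containing 1000 nM cGMP in Tris pH 7.2/MgCl2/DTT buffer, enzyme giving 20% conversion. 60 min at room temperature, IMAP binding reagent, fluorescence polarization read. Apparent Ki from FP readings using apparent KM 10,000 nM; ten-point 3-fold titrations.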

The structures appear in SMILES notation.

T1 sequence (O00408 1-920 isoform O00408-2): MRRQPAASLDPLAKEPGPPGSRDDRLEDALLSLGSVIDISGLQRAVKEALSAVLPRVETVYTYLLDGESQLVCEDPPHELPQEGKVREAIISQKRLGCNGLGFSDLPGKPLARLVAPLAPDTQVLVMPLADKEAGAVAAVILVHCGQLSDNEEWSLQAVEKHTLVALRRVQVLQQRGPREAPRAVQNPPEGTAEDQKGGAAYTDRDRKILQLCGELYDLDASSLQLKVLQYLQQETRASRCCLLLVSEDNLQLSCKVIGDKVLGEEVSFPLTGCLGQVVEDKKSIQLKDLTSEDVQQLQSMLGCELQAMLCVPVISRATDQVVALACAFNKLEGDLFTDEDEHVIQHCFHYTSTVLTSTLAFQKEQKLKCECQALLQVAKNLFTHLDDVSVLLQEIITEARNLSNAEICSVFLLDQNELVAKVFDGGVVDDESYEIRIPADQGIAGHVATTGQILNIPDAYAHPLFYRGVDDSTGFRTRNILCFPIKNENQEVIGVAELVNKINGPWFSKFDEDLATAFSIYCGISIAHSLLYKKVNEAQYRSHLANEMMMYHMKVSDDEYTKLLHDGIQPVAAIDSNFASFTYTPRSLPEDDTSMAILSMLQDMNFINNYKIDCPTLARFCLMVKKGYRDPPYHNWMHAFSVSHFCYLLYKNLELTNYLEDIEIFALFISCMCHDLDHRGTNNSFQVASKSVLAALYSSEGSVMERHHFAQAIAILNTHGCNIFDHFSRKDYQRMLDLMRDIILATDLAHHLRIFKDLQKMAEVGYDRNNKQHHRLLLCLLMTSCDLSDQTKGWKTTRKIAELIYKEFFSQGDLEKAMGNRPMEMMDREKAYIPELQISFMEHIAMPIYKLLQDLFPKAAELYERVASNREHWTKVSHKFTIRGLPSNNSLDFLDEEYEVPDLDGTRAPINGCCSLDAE

For the compound `Cc1nc2c(c(C(F)F)nn2C(C)c2ccc(C(F)(F)F)c(F)c2)c(=O)[nH]1` (single isomer, unassigned) [Example 168, (S)- or (R)-3-(Difluoromethyl)-1-(1-(3-fluoro-4-(trifluoromethyl)phenyl)ethyl)-6-methyl-1H-pyrazolo[3,4-d]pyrimidin-4(5H)-one], the Ki was 1.4 nM.

Consider `CC(c1ccc(S(F)(F)(F)(F)F)cc1)n1nc(CO)c2c(=O)[nH]c(C3CC3)nc21` (single isomer, unassigned) [Example 315, (R)- or (S)-6-Cyclopropyl-3-(hydroxymethyl)-1-{1-[4-(pentafluoro-sulfanyl)-phenyl]-ethyl}-1,5-dihydro-4H-pyrazolo[3,4-d]pyrimidin-4-one], for which the Ki was 3.3 nM.

Turning to `Cc1nc2c(c(CO)nn2C(C)c2ccc(C(C)(F)F)cc2)c(=O)[nH]1` (single isomer, unassigned) [Example 117, (S)- or (R)-1-(1-(4-(1,1-Difluoroethyl)phenyl)ethyl)-3-(hydroxymethyl)-6-methyl-1H-pyrazolo[3,4-d]pyrimidin-4(5H)-one], the Ki was determined as 1.1 nM. In the case of `COc1cccc(Cc2nc3c(c(-c4nnco4)nn3C(C)c3ccc(C(F)(F)F)cc3)c(=O)[nH]2)c1` (single isomer, unassigned) [Example 344, (R)- or (S)-6-(3-Methoxybenzyl)-3-(1,3,4-oxadiazol-2-yl)-1-(1-(4-(trifluoromethyl)phenyl)ethyl)-1,5-dihydro-4H-pyrazolo[3,4-d] pyrimidin-4-one], the Ki amounted to 26 nM. For the compound `Cc1nc2c(c(CO)nn2C(C)c2ccc(Cl)s2)c(=O)[nH]1` (single isomer, unassigned) [Example 154, (S)- or (R)-1-(1-(5-Chlorothiophen-2-yl)ethyl)-3-(hydroxymethyl)-6-methyl-1H-pyrazolo[3,4-d]pyrimidin-4(5H)-one], the Ki was 18 nM.

For the compound `Cc1nc2c(c(CC(F)(F)F)nn2C(C)c2ccc(C(F)(F)F)cc2)c(=O)[nH]1` (single isomer, unassigned) [Example 65, (S)- or (R)-6-Methyl-3-(2,2,2-trifluoroethyl)-1-(1-(4-(trifluoromethyl)phenyl)ethyl)-1H-pyrazolo[3,4-d]pyrimidin-4(5H)-one], the Ki was found to be 5 nM. Regarding `COCc1nc2c(c(C(F)F)nn2C(C)c2ccc(C(F)(F)F)cc2)c(=O)[nH]1` (single isomer, unassigned) [Example 187, (R)- or (S)-3-(Difluoromethyl)-6-(methoxymethyl)-1-{1-[4-(trifluoromethyl)phenyl]ethyl}-1,5-dihydro-4H-pyrazolo-[3,4-d]pyrimidin-4-one], the Ki came out at 231 nM.

For the compound `CC(c1ccc(C(F)(F)F)cc1)n1nc(-c2nnco2)c2c(=O)[nH]c(CC3CCCC3)nc21` (single isomer, unassigned) [Example 343, (S) or (R)-6-(Cyclopentylmethyl)-3-(1,3,4-oxadiazol-2-yl)-1-(1-(4-(trifluoromethyl)phenyl)ethyl)-1,5-dihydro-4H-pyrazolo[3,4-d] pyrimidin-4-one], the Ki turned out to be 299 nM. For the compound `Cc1nc2c(c(-c3cn[nH]c3)nn2C(C)c2ccc(C(F)(F)F)cc2)c(=O)[nH]1` (single isomer, unassigned) [Example 237], the Ki turned out to be 2.5 nM. Take `Cc1nc2c(c(CO)nn2C(C)c2ccc(OC(F)F)c(F)c2)c(=O)[nH]1` (single isomer, unassigned) [Example 113, (S)- or (R)-1-(1-(4-(Difluoromethoxy)-3-fluorophenyl)ethyl)-3-(hydroxymethyl)-6-methyl-1H-pyrazolo[3,4-d]pyrimidin-4(5H)-one]: the Ki was found to be 3 nM. Regarding `CC(c1ccc(C(F)(F)F)cc1)n1nc(C#N)c2c(=O)[nH]c(CC3CC3)nc21` (single isomer, unassigned) [Example 346], the inhibition constant Ki amounted to 34 nM. In the case of `CCCc1nc2c(c(CO)nn2C(C)c2ccc(C(F)(F)F)cc2)c(=O)[nH]1` (single isomer, unassigned) [Example 303, (R)- or (S)-3-(Hydroxymethyl)-6-propyl-1-(1-(4-(trifluoromethyl)phenyl)ethyl)-1,5-dihydro-4H-pyrazolo[3,4-d]pyrimidin-4-one] it was 4.7 nM.

Consider `Cc1nc2c(c(-c3ccco3)nn2C(C)c2ccc(C(F)(F)F)cc2)c(=O)[nH]1` (single isomer, unassigned) [Example 74, (R)- or (S)-3-(Furan-2-yl)-6-methyl-1-(1-(4-(trifluoromethyl)phenyl)ethyl)-1H-pyrazolo[3,4-d]pyrimidin-4(5H)-one], for which the inhibition constant (Ki) was 258 nM. Regarding `Cc1nc2c(c(CC3COC3)nn2C(C)c2ccc(C(F)(F)F)cc2)c(=O)[nH]1` (centres unmarked) [Example 289, 6-Methyl-3-(oxetan-3-ylmethyl)-1-(1-(4-(trifluoromethyl)phenyl)ethyl)-1H-pyrazolo[3,4-d]pyrimidin-4(5H)-one], the inhibitory constant (Ki) came out at 388 nM. Regarding `Cc1nc2c(c(CO)nn2C(C)c2ccc(C(F)(F)F)nc2)c(=O)[nH]1` (single isomer, unassigned) [Example 131, (S)- or (R)-3-(Hydroxymethyl)-6-methyl-1-(1-(6-(trifluoro-methyl)pyridin-3-yl)ethyl)-1H-pyrazolo[3,4-d]pyrimidin-4(5H)-one], the Ki was 57 nM. In the case of `Cc1nc2c(c(C(F)F)nn2C(C)c2ccc(S(F)(F)(F)(F)F)cc2)c(=O)[nH]1` (single isomer, unassigned) [Example 162], the inhibitory constant (Ki) worked out at 1.8 nM. Turning to `Cc1nc2c(c(NS(C)(=O)=O)nn2C(C)c2ccc(C(F)(F)F)cc2)c(=O)[nH]1` (centres unmarked) [Example 261, N-(6-Methyl-4-oxo-1-(1 (4-(trifluoromethyl)phenyl)ethyl)-4,5-dihydro-1H-pyrazolo[3,4-d]pyrimidin-3-yl)methanesulfonamide], the Ki is roughly 1800 nM. As to `CCc1nc2c(c(C(F)F)nn2C(C)c2ccc(C(F)(F)F)cc2)c(=O)[nH]1` (single isomer, unassigned) [Example 189, (R)- or (S)-3-(Difluoromethyl)-6-ethyl-1-(1-(4-(trifluoromethyl)phenyl)ethyl)-1,5-dihydro-4H-pyrazolo[3,4-d]pyrimidin-4-one], the Ki amounted to 330 nM. With `Cc1nc2c(c(CO)nn2C(C)c2ccc(C(F)F)cc2)c(=O)[nH]1` (single isomer, unassigned) [Example 110, (R)- or (S)-1-(1-(4-(Difluoromethyl)phenyl)ethyl)-3-(hydroxymethyl)-6-methyl-1H-pyrazolo[3,4-d]pyrimidin-4(5H)-one], the inhibition constant (Ki) came out at 1070 nM.

For `Cc1nc2c(c(C(=O)N(C)C)nn2C(C)c2ccc(C(F)(F)F)cc2)c(=O)[nH]1` (single isomer, unassigned) [Example 266, (R)- or (S)-N,N,6-Trimethyl-4-oxo-1-(1-(4-(trifluoromethyl)phenyl)ethyl)-4,5-dihydro-1H-pyrazolo[3,4-d]pyrimidine-3-carboxamide], the inhibition constant Ki is 654 nM. In the case of `Cc1nc2c(c(CO)nn2C(C)c2ccc(C(F)(F)F)nn2)c(=O)[nH]1` (single isomer, unassigned) [Example 146, (S)- or (R)-3-(Hydroxymethyl)-6-methyl-1-(1-(6-(trifluoromethyl)pyridazin-3-yl)ethyl)-1H-pyrazolo[3,4-d]pyrimidin-4(5H)-one] it was 58 nM; in that of `Cc1nc2c(c(CO)nn2C(C)c2ccc3c(c2)OC(F)(F)O3)c(=O)[nH]1` (single isomer, unassigned) [Example 115, (S)- or (R)-1-(1-(2,2-Difluorobenzo[d][1,3]dioxol-5-yl)ethyl)-3-(hydroxymethyl)-6-methyl-1H-pyrazolo[3,4-d]pyrimidin-4(5H)-one], 7.2 nM; in that of `CC(c1ccc(C(F)(F)F)cc1)n1nc(CO)c2c(=O)[nH]c(C3CCCO3)nc21` (single isomer, unassigned) [Example 312, (S,S)- or (R,S)- or (S,R)- or (R,R)-3-(Hydroxymethyl)-6-(tetrahydrofuran-2-yl)-1-(1-(4-(trifluoromethyl-)phenyl)ethyl)-1,5-dihydro-4H-pyrazolo[3,4-d]pyrimidin-4-one], roughly 1860 nM. The figure for `CC(C)Cc1nc2c(c(CO)nn2C(C)c2ccc(C(F)(F)F)cc2)c(=O)[nH]1` (single isomer, unassigned) [Example 305, (R)- or (S)-3-(Hydroxy-methyl)-6-isobutyl-1-(1-(4-(trifluoromethyl)phenyl)ethyl)-1,5-dihydro-4H-pyrazolo-[3,4-d]pyrimidin-4-one] is 17 nM; for `Cc1nc2c(c(CO)nn2C(C)[C@H]2CC[C@H](C(F)(F)F)CC2)c(=O)[nH]1` (single isomer, unassigned) [Example 125, (S)- or (R)-3-(Hydroxymethyl)-6-methyl-1-((trans)-4-(trifluoro-methyl)cyclohexyl)ethyl)-1H-pyrazolo[3,4-d]pyrimidin-4(5H)-one] it is 26 nM.

On to `Cc1nc2c(c(CC(O)C(F)(F)F)nn2C(C)c2ccc(C(F)(F)F)cc2)c(=O)[nH]1` (single isomer, unassigned) [Example 240], for which the inhibition constant (Ki) was 434 nM.

As for `CC(c1ccc(C(F)(F)F)cc1)n1nc(C(F)F)c2c(=O)[nH]c(C3CC3)nc21` (single isomer, unassigned) [Example 192, (S)- or (R)-6-Cyclopropyl-3-(difluoromethyl)-1-(1-(4-(trifluoromethyl)phenyl)ethyl)-1,5-dihydro-4H-pyrazolo[3,4-d]pyrimidin-4-one], the Ki is 3.4 nM. For the compound `Cc1nc2c(c([C@@H](C)CO)nn2[C@@H](C)c2ccc(C(F)(F)F)cc2)c(=O)[nH]1` (single isomer, unassigned) [Example 320], the Ki stood at 1.2 nM. In the case of `Cc1nc2c(c(C3CCCO3)nn2C(C)c2ccc(C(F)(F)F)cc2)c(=O)[nH]1` (single isomer, unassigned) [Example 71, (R, S)- or (R, R)- or (S, R)- or (S, S)-6-Methyl-3-(-tetrahydrofuran-2-yl)-1-(-l-(4-(trifluoromethyl)phenyl)ethyl)-1H-pyrazolo[3,4-d]pyrimidin-4(5H)-one] it was 111 nM.
